Entries after “also recorded” stand apart in the source; their conditions may differ.
Experiments:
[1] = test system: paxillin (pY118); experiment: Western blot of VEGF-induced paxillin Y118 phosphorylation in REC; format: cell-based, human
Experimental: (§1) REC, Mel 270, OMM 2.5 under Hepatocyte Growth Factor (HGF) or Vascular Endothelial Growth Factor (VEGF) stimulation conditions: Cell lysates were collected in RIPA lysis buffer (50 mM Tris-HCl, pH 7.4, 150 mM NaCl, 2 mM EDTA, 1% Nonidet P-40, 0.1% SDS) with protease 1× inhibitor cocktail (Roche; Indianapolis, Ind.). Lysates were kept on ice and centrifuged at 10,000×g×10 minutes and total protein was measured using the BCA assay (Pierce, Rockford, Ill.). Protein samples were mixed with 4×LDS loading buffer with 2.5% 2-mercaptoethanol (Sigma-Aldrich), heated to 70° C. for 10 minutes, and loaded on NuPAGE 4-12% Bis-Tris gel (Invitrogen, Carlsbad, Calif.). Immunoblotting was performed with nitrocellulose membranes (Bio-Rad, Hercules, Calif.) at 170-mA start and 110-mA end at 25 V for two hours in NuPAGE transfer buffer (Invitrogen) containing 20% methanol. Membranes were blocked using Odyssey blocking buffer (LI-COR; Lincoln, Nebr.) for one hour at room temperature with gentle shaking Membranes were then incubated at 4° C. with specific primary antibodies (1:1000) overnight. Cellular protein was normalized using rabbit-GAPDH or mouse-α-Tubulin [1:20,000] (Cell Signaling, Danvers, Mass.; LI-COR, respectively). Secondary antibodies (IRDye 800CW goat anti-rabbit and IRDye 680LT goat anti-mouse) [1:10,000] were incubated in the dark at room temperature for 45 minutes. Dual-channel infrared scan and quantitation of immunoblots were conducted using the ODYSSEY Sa infrared imaging system with Image Studio (Ver. 3.1.4) (LI-COR).
The α4 subunit of the cytoplasmic tail of VLA-4 interacts with the cytoskeletal adaptor paxillin, merging intracellular signaling events that drive cellular proliferation and migration (FIG. 13). Compound (II-4) inhibits phosphorylation of paxillin at Y118 (pY118) in the LD-region that interacts with the α4 subunit of VLA-4. To confirm the inhibition of pY118 of paxillin after use of compound (II-4) retinal endothelial cells (REC) were activated with Vascular Endothelial Growth Factor (VEGF) at 50 ng/mL in the presence or absence (vehicle) of compound (II-4) at a concentration of […] for 4-hrs. […] VEGF-induced pY118 was prevented by treatment with compound (II-4) [VEGF-REC treatment versus untreated, *p<0.005; VEGF-induced versus compound (II-4) treatment, **p<0.05—FIG. 13C].
To gain insight into the mechanistic basis for this phenotype, the effect of compound (II-4) on the Src/FAK/paxillin/ERK signalsome in RECs under VEGF was examined. […] Next, characterization of the potential of compound (II-4) to affect FA disassembly through inactivation of ERK was explored. […]
FIG. 13: Targeting the alpha-4 subunit of VLA-4 signaling through inhibition of paxillin. […] Phosphorylation measured by Western Blot. […]

[2] = test system: ERK1/2; experiment: Western blot of VEGF-induced ERK1/2 phosphorylation in REC; format: cell-based, human; conditions: REC under VEGF; compound (II-4) 500 nM, SU6656 1 μM
Experimental: as §1, with “Secondary antibodies (IRDye 800CW goat anti-rabbit and IRDye 680LT goat anti-mouse) [1:10,000] were incubated in the dark at room temperature for 45 minutes.” left out, “(LI-COR). […]” for “(LI-COR).”

[3] = target: T1, CYP2D6 (Homo sapiens, UniProt P10635); experiment: CYP-450 interaction study in pooled human liver microsomes, CYP2D6; format: in vitro ADME; conditions: 1 μM
T1 construct: from tissue; host or cells: pooled human liver microsomes
Experimental: CYP-450 interaction studies were conducted in pooled human liver microsomes (FIG. 8). CYP-450 inhibition (%) by compound (II-4) (1 μM) was compared to control inhibitors (1 μM) for the most common CYP-450 isoforms, CYP3A4, CYP2C9, CYP2D6, CYP2C19, and CYP1A2.
CYP-450 interaction studies were conducted in pooled human liver microsomes (FIG. 24). CYP-450 inhibition (%) by compound (II-4) (1 μM) was compared to control inhibitors (1 μM) for the most common CYP-450 isoforms, 3A4, 2C9, 2D6, 2C19, and 1A2.

[4] = test system: Pkd1 V/V mouse; experiment: Dermal microemulsion delivery to Pkd1 cystic mice (ADPKD model); format: in vivo; conditions: dermal application as microemulsion, neonatal Pkd1 mice
Text: Paxillin is abnormally expressed in cystic epithelial cells in a mouse model of ADPKD. […] For this reason, paxillin can be considered to act as a “rheostat” that can be targeted to curtail cystogenesis.
The paxillin inhibitor compound (II-4) inactivates phosphorylation at Y118 on paxillin using retinal endothelial cells. Compound (II-4) has been formulated as a microemulsion for non-invasive delivery to neonatal Pkd1 non-cystic and cystic mice and it has been observed that renal cystic disease was attenuated as measured by total kidney-to-body weight ratio.
FIG. 4: Paxillin in ADPKD kidneys. (A) Immunoblot of total paxillin in protein lysates from non-cystic Pkd1^+/+ (n=5) and cystic Pkd1^V/V (n=3) mouse kidneys at post-natal day 11 after 8 days of dermal application of compound (II-4) microemulsion solution. GAPDH was used as a loading control. Densitometry of the bands normalized to GAPDH is shown for (B) paxillin and (C) phospho-paxillin (C). * P<0.005 difference between groups.

T1 sequence (P10635 whole entry): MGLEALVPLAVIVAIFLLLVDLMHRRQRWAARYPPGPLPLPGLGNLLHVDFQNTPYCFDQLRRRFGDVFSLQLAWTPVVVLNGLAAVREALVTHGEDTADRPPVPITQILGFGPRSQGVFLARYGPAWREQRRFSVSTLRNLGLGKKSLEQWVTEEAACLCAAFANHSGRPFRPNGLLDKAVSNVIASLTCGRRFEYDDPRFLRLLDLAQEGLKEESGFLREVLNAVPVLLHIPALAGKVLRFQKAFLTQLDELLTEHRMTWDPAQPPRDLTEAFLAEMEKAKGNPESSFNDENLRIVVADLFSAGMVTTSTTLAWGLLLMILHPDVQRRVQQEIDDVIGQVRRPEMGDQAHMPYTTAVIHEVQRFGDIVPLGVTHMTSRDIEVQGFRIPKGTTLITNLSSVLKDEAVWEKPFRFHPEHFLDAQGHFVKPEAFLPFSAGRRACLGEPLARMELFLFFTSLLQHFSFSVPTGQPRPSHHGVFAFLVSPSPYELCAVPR

COc1cc(C2OC(=O)Nc3c2ccc2ccccc32)cc(OC)c1OC (centres unmarked) [compound II-4]
VEGF-induced PaxY118 phosphorylation (FIG. 20) ([1]; REC under VEGF, compound (II-4) 500 nM, SU6656 1 μM): able to inhibit; also recorded: reduced | VEGF-induced paxillin phosphorylation (pY118) ([1]; REC, VEGF 50 ng/mL, 4 hrs, inhibitor 1 μM (printed 104)): prevented; also recorded: reduced | VEGF-dependent ERK1/2 phosphorylation [2]: No significant change; also recorded: Neither SU6656 nor compound (II-4) decreased | CYP-450 inhibition, CYP2D6 [3]: lack of significant inhibition; also recorded: lacks significant inhibition | renal cystic disease / cystic disease progression (total kidney-to-body weight ratio) [4]: functional reduction in cystic disease progression; also recorded: attenuated

— patent US9834525B2, “Inhibitors of paxillin function and related compositions and methods” (UNIVERSITY OF TENNESSEE RESEARCH FOUNDATION, priority 2015, dated 2017)
